# Data as given in ChEMBL document CHEMBL6114982, “Structural optimization and characterization of highly potent and selective STAT3 inhibitors for the treatment of triple negative breast cancer” (Eur J Med Chem, 2025).
# The source made the active and inactive calls. The calls are words filed in the database; no cut-off is given here.
# What was measured:
# [1] = target: T1, Signal transducer and activator of transcription 3 (Homo sapiens, UniProt P40763); experiment: Inhibition of STAT3 phosphorylation in human MDA-MB-231 cells assessed as downregulation of KRT1 expression level; type: cell-based
# T1 sequence (P40763 whole entry): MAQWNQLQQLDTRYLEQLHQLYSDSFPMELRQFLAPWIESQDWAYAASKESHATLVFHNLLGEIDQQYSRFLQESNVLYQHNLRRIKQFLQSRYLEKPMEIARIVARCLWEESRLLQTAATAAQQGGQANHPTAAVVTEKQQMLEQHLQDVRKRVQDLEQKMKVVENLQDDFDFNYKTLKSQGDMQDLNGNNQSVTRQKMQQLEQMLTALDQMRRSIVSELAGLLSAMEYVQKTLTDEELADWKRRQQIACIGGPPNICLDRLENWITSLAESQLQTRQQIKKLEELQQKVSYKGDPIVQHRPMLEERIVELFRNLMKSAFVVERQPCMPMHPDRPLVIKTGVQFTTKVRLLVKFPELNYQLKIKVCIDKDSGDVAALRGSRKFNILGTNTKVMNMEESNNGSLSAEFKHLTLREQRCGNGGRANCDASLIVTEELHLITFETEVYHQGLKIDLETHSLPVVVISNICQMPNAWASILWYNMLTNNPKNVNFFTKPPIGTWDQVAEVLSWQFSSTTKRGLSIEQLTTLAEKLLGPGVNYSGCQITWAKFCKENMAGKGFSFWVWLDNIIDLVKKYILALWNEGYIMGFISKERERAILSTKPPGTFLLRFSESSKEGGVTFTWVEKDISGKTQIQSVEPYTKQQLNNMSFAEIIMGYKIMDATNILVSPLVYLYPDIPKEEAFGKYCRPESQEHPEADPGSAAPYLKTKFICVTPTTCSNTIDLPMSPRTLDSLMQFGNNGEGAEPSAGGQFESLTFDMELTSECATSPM
# [2] = target: T1, Signal transducer and activator of transcription 3; experiment: Inhibition of STAT3 phosphorylation in human MDA-MB-231 cells assessed as downregulation of F5 level; type: cell-based
# BT-549 [3] = experiment: Effect on Akt phosphorylation level in human BT-549 cells at 0.05 to 0.5 uM measured after 48 hrs by Western blot analysis; type: functional, cell-based; settings: dose 0.05-0.5 µM
# MDA-MB-231 [4] = experiment: Effect on Akt phosphorylation level in human MDA-MB-231 cells at 0.05 to 0.5 uM measured after 48 hrs by Western blot analysis; type: functional, cell-based; settings: dose 0.05-0.5 µM
# BT-549 [5] = experiment: Inhibition colony formation in human BT-549 cells harbouring STAT3 siRNA at 0.1 uM after 14 days by crystal violet staining based analysis; type: functional, cell-based; settings: time 14.0 day
# [6] = target: T1, Signal transducer and activator of transcription 3; experiment: Inhibition of STAT3 phosphorylation in human MDA-MB-231 cells assessed as upregulation of HMOX1 expression level; type: cell-based
# MDA-MB-231 [7] = experiment: Downregulation of Bcl-2 level in human MDA-MB-231 cells measured after 48 hrs by Western blot analysis; type: functional, cell-based; settings: dose 0.05-0.5 µM
# MDA-MB-231 [8] = experiment: Effect on STAT3 expression in human MDA-MB-231 cells at 0.1 microM measured after 8 to 48 hrs by Western blot analysis; type: functional, cell-based; settings: time 8-48 hrs
# [9] = target: T1, Signal transducer and activator of transcription 3; experiment: Inhibition of STAT3 phosphorylation at Tyr705 residue in human MDA-MB-231 cells at 0.1 uM by Western blot analysis; type: cell-based; settings: time 8-48 hrs
# BT-549 [10] = experiment: Effect on STAT5 phosphorylation level in human BT-549 cells at 0.05 to 0.5 uM measured after 48 hrs by Western blot analysis; type: functional, cell-based; settings: dose 0.05-0.5 µM
# [11] = Toxicity in female BALB/c nude mouse assessed as effect on heart at 10 to 20 mg/kg, iv measured after 30 days by H and E staining based analysis; type: organism-based; settings: in vivo, 720 h, dose 10-20 mg/kg, time 30 day
# MDA-MB-231 [12] = experiment: Antitumor activity against human MDA-MB-231 cells xenografted in female nude BALB/c mouse model assessed as reduction in tumor volume at 20 mg/kg, ip administered every other day for 30 days (reference value: 1522.98 millimeter); type: functional; settings: time 30 day
# BT-549 [13] = experiment: Effect on JAK1 phosphorylation level in human BT-549 cells at 0.05 to 0.5 uM measured after 48 hrs by Western blot analysis; type: functional, cell-based; settings: dose 0.05-0.5 µM
# BT-549 [14] = experiment: Inhibition of colony formation in human BT-549 cells measured after 14 days by crystal violet staining based analysis; type: functional, cell-based; settings: dose 0.1-0.5 µM, time 14.0 day
# [15] = target: T1, Signal transducer and activator of transcription 3; experiment: Inhibition of STAT3 phosphorylation in human MDA-MB-231 cells assessed as downregulation of TAGLN expression level; type: cell-based
# MDA-MB-231 [16] = experiment: Antitumor activity against human MDA-MB-231 cells xenografted in female nude BALB/c mouse model assessed as tumor growth inhibition at 20 mg/kg, ip administered every other day for 30 days relative to control; type: functional; settings: MDA-MB-231, 720 h, time 30 day, read-out: TGI
# BT-549 [17] = experiment: Inhibition of cell invasion in human BT-549 cells assessed as decrease in number of invaded cells incubated for 24 hrs by crystal violet staining based inverted microscopic analysis; type: functional; settings: dose 0.05-0.5 µM
# [18] = target: T2, Tyrosine-protein kinase JAK3 (Homo sapiens) (UniProt P52333); experiment: Inhibition of JAK3 (unknown origin) at upto 10 uM
# T2 sequence (whole entry): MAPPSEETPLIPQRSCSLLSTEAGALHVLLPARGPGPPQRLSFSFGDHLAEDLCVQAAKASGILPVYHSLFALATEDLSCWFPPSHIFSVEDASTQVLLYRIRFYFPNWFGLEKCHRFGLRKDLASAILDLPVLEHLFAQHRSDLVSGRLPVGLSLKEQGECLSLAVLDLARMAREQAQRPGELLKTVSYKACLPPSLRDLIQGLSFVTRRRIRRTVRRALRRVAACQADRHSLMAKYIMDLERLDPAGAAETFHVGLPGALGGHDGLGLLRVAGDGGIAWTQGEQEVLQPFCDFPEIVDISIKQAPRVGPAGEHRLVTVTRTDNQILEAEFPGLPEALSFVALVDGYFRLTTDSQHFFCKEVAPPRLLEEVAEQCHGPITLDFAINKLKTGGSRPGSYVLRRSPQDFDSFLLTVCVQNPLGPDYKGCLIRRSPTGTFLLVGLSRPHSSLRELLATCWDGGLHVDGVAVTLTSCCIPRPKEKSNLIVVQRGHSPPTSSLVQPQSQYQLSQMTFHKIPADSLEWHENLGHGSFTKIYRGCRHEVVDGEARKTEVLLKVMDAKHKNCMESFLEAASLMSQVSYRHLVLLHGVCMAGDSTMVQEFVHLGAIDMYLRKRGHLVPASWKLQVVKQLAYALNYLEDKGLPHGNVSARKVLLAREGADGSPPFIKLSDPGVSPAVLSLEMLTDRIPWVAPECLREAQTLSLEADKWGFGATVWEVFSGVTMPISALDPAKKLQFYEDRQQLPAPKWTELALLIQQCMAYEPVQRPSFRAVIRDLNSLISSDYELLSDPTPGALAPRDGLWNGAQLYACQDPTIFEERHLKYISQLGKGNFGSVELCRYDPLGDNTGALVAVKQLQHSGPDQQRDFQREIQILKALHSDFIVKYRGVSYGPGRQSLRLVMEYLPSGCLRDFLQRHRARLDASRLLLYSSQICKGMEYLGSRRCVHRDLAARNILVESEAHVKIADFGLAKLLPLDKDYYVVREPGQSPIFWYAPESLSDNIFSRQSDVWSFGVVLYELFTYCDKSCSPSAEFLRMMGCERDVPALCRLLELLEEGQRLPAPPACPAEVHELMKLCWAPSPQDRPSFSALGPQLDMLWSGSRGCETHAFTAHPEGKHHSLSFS
# [19] = target: T1, Signal transducer and activator of transcription 3; experiment: Inhibition of STAT3 in human MDA-MB-231 cells assessed as downregulation of CCNB1 level; type: cell-based
# MDA-MB-231 [20] = experiment: Antitumor activity against human MDA-MB-231 cells xenografted in female nude BALB/c mouse model assessed as reduction in tumor volume at 10 mg/kg, ip administered every other day for 30 days (reference value: 1522.98 millimeter); type: functional; settings: time 30 day
# [21] = target: T1, Signal transducer and activator of transcription 3; experiment: Inhibition of STAT3 in human MDA-MB-231 cells assessed as downregulation of SPRY1 level; type: cell-based
# MDA-MB-231 [22] = experiment: Downregulation of Bcl-xl level in human MDA-MB-231 cells measured after 48 hrs by Western blot analysis; type: functional, cell-based; settings: dose 0.05-0.5 µM
# MDA-MB-231 [23] = experiment: Inhibition of cell migration in human MDA-MB-231 cells assessed as reduction in wound closure proportion at 0.05 to 0.5 uM incubated for 24 hrs by inverted microscopic analysis; type: functional, cell-based; settings: dose 0.05-0.5 µM
# MDA-MB-231 [24] = experiment: Effect on STAT1 phosphorylation level in human MDA-MB-231 cells at 0.05 to 0.5 uM measured after 48 hrs by Western blot analysis; type: functional, cell-based; settings: dose 0.05-0.5 µM
# BT-549 [25] = experiment: Downregulation of cyclin D1 level in human BT-549 cells measured after 48 hrs by Western blot analysis; type: functional, cell-based; settings: dose 0.05-0.5 µM
# [26] = target: T1, Signal transducer and activator of transcription 3; experiment: Inhibition of STAT3 phosphorylation in human MDA-MB-231 cells assessed as upregulation of UBE2S expression level; type: cell-based
structure (smiles),measurement,setting,value
COc1cccc(C(=O)Nc2sc3c(c2C#N)CCN(C(=O)Nc2ccccc2OC)C3)c1,inhibition,[1],Active
same,inhibition,[2],Active
same,Activity,BT-549 [3],inactive
same,Activity,MDA-MB-231 [4],inactive
same,inhibition,BT-549 [5],inactive
same,inhibition,[6],Active
same,Activity,MDA-MB-231 [7],Dose-dependent-effect
same,Activity,MDA-MB-231 [8],Active; Compound Showed Little Impact On Stat3 Expression
same,inhibition,[9],Time-dependent-effect
same,Activity,BT-549 [10],inactive
same,Activity,[11],Non-toxic
same,tumor volume,MDA-MB-231 [12],656 mm³
same,Activity,BT-549 [13],inactive
same,inhibition,BT-549 [14],Dose-dependent-effect
same,inhibition,[15],Active
same,inhibition in vivo at 20 mg/kg,MDA-MB-231 [16],58%
same,inhibition,BT-549 [17],Dose-dependent-effect
same,inhibition,[18],Active; Compound Showed Little Inhibitory Effect
same,inhibition,[19],Active
same,tumor volume,MDA-MB-231 [20],762 mm³
same,inhibition,[21],Active
same,Activity,MDA-MB-231 [22],Dose-dependent-effect
same,inhibition,MDA-MB-231 [23],Active
same,Activity,MDA-MB-231 [24],inactive
same,Activity,BT-549 [25],Dose-dependent-effect
same,inhibition,[26],Active
